Results as given in patent publication US20210252015A1, “CERTAIN (2S)-N-[(1S)-1-CYANO-2-PHENYLETHYL]-1,4-OXAZEPANE-2-CARBOXAMIDES FOR TREATING INFLAMMATORY BOWEL DISEASE” (Insmed Incorporated, priority 2018, published 2021).

Experiments:
[1] = test system: DSS-induced colitis in C57BL/6 mice; assay: DSS-induced colitis murine study, Example 1B (endoscopy, stool consistency, body weight); type: in vivo
Description: Mice: Ninety-five (95) male C57BL/6 mice with an average starting body weight (SEM) of 20.6 g (+0.16 g) were obtained from Charles River Laboratories (Wilmington, Mass.). Animals were acclimatized prior to the study. During this period, the animals were observed daily in order to reject any that presented in poor condition. Animals were fed with 5053 sterile rodent diet and water was provided ad libitum.
Solutions: The INS1007 Solution, Anti-p40 mAb solution and DSS Induction Solution were prepared and stored as described in Example 1A. […]
All animals were weighed daily and assessed visually for the presence of diarrhea and/or bloody stool at the time of dosing. […] Colitis severity was scored using the scale described in Example 1A. Stool consistency was scored during endoscopy using the parameters defined in Table 2. […]
Animals underwent endoscopy on Days 10 and 14, in order to assess colonic inflammation. Colitis was scored visually on a five-point scale using the method described in Example 1A. Stool consistency was scored visually on a five-point scale using the method described in Example 1A. […]
To determine the statistical significance of overall differences in mean percent body weight change between groups, the area under the curve (AUC) was calculated using the trapezoidal rule transformation and is shown in the FIG. 9.

[2] = test system: colitis induced by the adoptive transfer of sorted naïve T cells into RAG2−/− mice; assay: Adoptive T-Cell Transfer Colitis Model, Example 2 (survival, endoscopy, stool consistency, body weight); type: in vivo
Description: The efficacy of INS1007 in the treatment of colitis induced by the adoptive transfer of sorted naïve T cells into RAG2^−/− mice (“Adoptive T-Cell Transfer Colitis Model”) was evaluated. The Adoptive T-Cell Transfer Colitis Model is an immunological animal model of colitis that provides focused and detailed examination of T cell-mediated pathological mechanisms, and generally responds well to established clinical therapies such as anti-TNFα. The model is described in detail in D. V. Ostanin, et al., T cell transfer model of chronic colitis: concepts, considerations, and tricks of the trade. Am. J. Physiol. Gastrointest. Liver Physiol. 2009; 296(2): G135-46, which is hereby incorporated by reference in its entirety for all purposes.
Example 2 evaluated the effectiveness of INS1007 dosed at 0.3 mg/kg, 1.0 mg/kg, 3.0 mg/kg and 10 mg/kg in the Adoptive T-Cell Transfer Colitis Model. Vehicle (negative control) and an anti-p40 mAb antibody (positive control) were also evaluated.
Mice: Ninety-five (95) male RAG2^−/− mice (n=95) with an average starting body weight (±SEM) of 21.3±0.12 g were obtained from Taconic Biosciences (Germantown, N.Y.). Animals were acclimatized prior to study commencement. During this period, the animals were observed daily in order to reject any that presented in poor condition. Animals were fed with 5053 sterile rodent diet and water was provided ad libitum.
INS1007 Solutions: INS1007 was diluted with 0.5% Hydroxypropylmethylcellulose in Citrate buffer w/0.1% Tween 80 (pH 3.0). Solutions were stored at 4° C. INS1007 solutions were discarded after 3 days and fresh solutions were prepared.
Anti-p40 mAb solution: Anti-mouse IL-12 p40 (Clone: C17.8) obtained from BioXCell (Cat #: BE0051) was diluted with phosphate buffered saline. Solutions were stored at 4° C. Anti-mouse IL-12 p40 solutions were discarded after 7 days and fresh solutions were prepared.
Groups 1-2 were negative controls; groups 3-6 were treated with INS 1007 and Group 7 was treated with Anti-p40 mAb.
The study included two phases: a T-cell transfer colitis-induction period (T-cell engraftment in FIG. 14) and a treatment period (Veh/1007 TX in FIG. 14). Colitis was induced on Day 0 in 90 RAG2^−/− mice by IP injection (200 μL) of 0.5×10^6 CD44^−/CD62L^+ T-cells (in PBS) isolated and purified from C57Bl/6 […]. Donor cells were processed as follows. Whole spleens were excised from donor C57BL/6 mice and were immediately placed ice-cold PBS. The spleens were dissociated to yield a single cell suspension and the red blood cells were lysed. Spleens were then processed for CD4+ enrichment prior to CD44-CD62L^+ sorting using Miltenyi MACS columns.
Animals in Groups 1-6 were dosed via oral gavage (PO) twice daily (BID) from Days 14 to 41 with INS1007 Solution or vehicle, as indicated in Table 4. Animals in Group 7 were dosed via intraperitoneal (IP) injection once every third day (Q3D) from Day 14 to 39 with Anti-p40 mAb solution.
Animals were observed daily (weight morbidity, survival, presence of diarrhea and/or bloody stool) to assess differences among treatment groups and/or possible toxicity resulting from the treatments.
Each mouse, under isoflurane anesthesia, underwent video endoscopy on Days 14, 28, and 42 using a small animal endoscope (Karl Storz Endoskope, Germany), to assess colitis severity. During each endoscopic procedure, still images and video were recorded to evaluate the extent of colitis and the response to treatment. Colitis severity and Stool consistency were scored using the methods described in Examples 1 and 2. Following endoscopy on day 42, all animals from each treatment group were sacrificed. Following euthanasia, bone marrow (from both femurs and tibias) were collected, lysed, and then snap frozen. The frozen tissue was stored at −80° C.
Weight Loss: Weight loss calculated as a percentage of the starting weight on Day 0 was recorded in all treatment groups.

[3] = Day 28, INS1007 1 mg/kg (Group 4)
[4] = Day 28, INS1007 3 mg/kg (Group 5)
[5] = Day 28, INS1007 10 mg/kg (Group 6)
[6] = Day 42, INS1007 1 mg/kg (Group 4)
[7] = Day 42, INS1007 3 mg/kg (Group 5)
[8] = Day 42, INS1007 10 mg/kg (Group 6)

With `Cn1c(=O)oc2ccc(-c3ccc(C[C@@H](C#N)NC(=O)[C@@H]4CNCCCO4)cc3)cc21` [INS1007, (2S)—N-{(1S)-1-cyano-2-[4-(3-methyl-2-oxo-2,3-dihydro-1,3-benzoxazol-5-yl)phenyl]ethyl}-1,4-oxazepane-2-carboxamide] the mean endoscopy score ([1]; Day 14, INS1007 0.3 mg/kg PO BID (Group 3), vs vehicle control (Group 2)) was “reduced”, the “body weight loss (AUC, calculated based on Day -7)” value ([1]; INS1007 1 mg/kg PO BID (Group 4), vs Group 2 (3% DSS+vehicle)) was “significantly decreased” and the “reduction in mean endoscopy score as compared to vehicle control (Group 2)” value (shortened to “reduction in mean endoscopy score”) ([2]; Day 14, INS1007 3 mg/kg (Group 5)) was 22.2%. The “mean stool consistency score vs vehicle control (Group 2)” value [2, 3] was “reductions”, the “reduction in mean endoscopy score” value [2, 3] was 38.4% and the “mean stool consistency score vs vehicle control (Group 2)” value [2, 4] was “reductions”. The “reduction in mean endoscopy score” value [2, 4] was 39.5%, the “mean stool consistency score vs vehicle control (Group 2)” value [2, 5] was “reductions” and the “reduction in mean endoscopy score” value [2, 5] was 15.3%. The “mean stool consistency score vs vehicle control (Group 2)” value [2, 6] was “reductions”, the “reduction in mean endoscopy score” value [2, 6] was 33.5% and the “mean stool consistency score vs vehicle control (Group 2)” value [2, 7] was “reductions”. The “reduction in mean endoscopy score” value [2, 7] was 42.7%, the “mean stool consistency score vs vehicle control (Group 2)” value [2, 8] was “largest reductions” and the “reduction in mean endoscopy score” value [2, 8] was 35.0%. The “weight loss compared to vehicle control (Group 2), body weight carried forward” value ([2]; INS1007 3 mg/kg (Group 5), Days 0 to 42) was “reduced”, the “survival vs vehicle control” value ([2]; INS1007 3 mg/kg (Group 5), log-rank test) was “significantly improved” and the survival ([2]; INS1007 3 mg/kg PO BID Day 14 to 41 (Group 5), Days 0 to 42, vehicle control 53.3%) was 95.86%.
